Assay: Solubility study: maximum solubility of terpenes in solvent by stepwise addition and visual inspection
Type: physicochemical
Details: ambient temperature (18 to 22 degrees Celsius); for Max. solubility of terpenes in solvent (% w/w) BA: solvent benzyl alcohol (BA); for Max. solubility of terpenes in solvent (% w/w) PG: solvent propylene glycol (PG); for Max. solubility of terpenes in solvent (% w/w) PG + 8% BA: solvent propylene glycol with 8%w/w benzyl alcohol
Method: A solubility study was carried out to assess the solubility of a range of terpenes in propylene glycol (PG) and benzyl alcohol (BA), and a mixture of propylene glycol (PG) and 8%w/w benzyl alcohol (BA) (materials were sourced from Sigma).
In particular, the maximum solubility at ambient temperature was assessed following the stepwise addition of each terpene to the relevant solvent or solvent mixture. Each terpene was added in aliquots to a solvent (PG, BA or a combination of PG and BA, where the BA was present in an amount of 8%w/w of the PG) and stirred at ambient temperature (18 to 22 degrees Celsius) until the terpene had fully solubilized. The next aliquot of terpene was then added.

Max. solubility of terpenes in solvent (% w/w) BA [% w/w]	Max. solubility of terpenes in solvent (% w/w) PG [% w/w]	Max. solubility of terpenes in solvent (% w/w) PG + 8% BA [% w/w]	Structure (SMILES)
73.2	72.6	74.3	C=C[C@](C)(O)CCC=C(C)C [R- linalool]
11.0	1.1	2.4	C=C1CC/C=C(\C)CC[C@@H]2[C@@H]1CC2(C)C [beta-caryophyllene]
71.2	47.0	70.3	CC(C)=CCCC(C)CCO (stereo not drawn) [beta-citronellol]

Structure (SMILES)	Max. solubility of terpenes in solvent (% w/w) BA [% w/w]	Max. solubility of terpenes in solvent (% w/w) PG [% w/w]	Max. solubility of terpenes in solvent (% w/w) PG + 8% BA [% w/w]
C=CC(C)(CCC=C(C)C)OC(C)=O (stereo not drawn) [Linalyl acetate]	34.5	1.4	6.0
